Measurements taken from patent US12441733B2, “Substituted 2,4-dioxotetrahydropyrimidines as intermediates in the synthesis of bruton's tyrosine kinase inhibitors” (Novartis AG, priority 2018, dated 2025).

Assays:
Format in all cases: cell-based
[1] = tested on: OCI-LY3 cells; test: Resazurin cell viability (proliferation) assay in OCI-LY3 DLBCL cells; settings: Homo sapiens, OCI-LY3 cells (BTK independent), 72 h, 50% growth inhibition vs vehicle, read-out: OCI-LY3 Prol GI50
Protocol: (§1) Compounds of the invention were tested in the following cellular assays. The terms in Table 2 are defined as follows: DC50 refers to the concentration at which 50% maximal degradation was observed; deg Amax is the extent of degradation and the value refers to the % protein remaining at the concentration at which maximum degradation is seen; ProI GI50 refers to the proliferation data and defines the concentration at which 50% growth inhibition was observed compared to the vehicle treated control at the end of the incubation time. TMD8 cells are BTK dependent and OCI-LY3 cells are BTK independent.
(§2) Cell Viability Assay in DLBCL (Diffuse Large B-Cell Lymphoma) Cells:
(§3) The effect of the BTK compounds on cell proliferation was measured by a Resazurin (Sigma, #R7017) based cell viability assay. TMD8 (BTK compound sensitive) and OCI-LY3 (BTK compound insensitive) cells were incubated for 72 h at 37° C. and 5% CO2 with the corresponding compound, Resazurin is a non-toxic, cell-permeable substrate that is virtually non-fluorescent. Upon entering living cells, Resazurin (Sigma, #R7017) is reduced to highly fluorescent Resorufin. The metabolic activity was assessed by measuring the fluorescence signal (ex. 530 nm; em. 600 nm).
(§4) TMD8 and OCI-Ly3 cells were seeded at day 0 in triplicates at a cell density of 1×10^4 cells per 150 μl/well in a 96-well plate (Costar #3904). Additional plates were prepared, in order to assess the basal metabolic activity of both cell lines at the beginning of the experiment. For these reference plates, Resazurin (Sigma, #R7017) was added to a final concentration of 13 μg/ml 3 h post seeding and was incubated for 2 h at 37° C. and 5% CO2. Following incubation, the fluorescent signal intensity of the 96-well plates was measured on a Mithras LB940 multimode plate reader at 530/600 nm (Berthold Technologies, Germanyl).
(§5) In parallel, 3 h post-seeding, test-plates were treated with compound at various concentrations, or with vehicle (DMSO) alone for 3 days. The compound addition to the plates was performed by using a HP D300 digital dispenser (TECAN, Switzerland). The compounds were tested in triplicate, 8-point serial dilution (1:4), with a start concentration of 10 μM for OCI-LY3 and 1 μM for the TMD8 cells, respectively. To assess the relative proliferation of the cells, Resazurin was added to each well directly to the medium to a final concentration of 13 μg/ml. The plates were incubated for 2 h at 37° C. and 5% CO2 to result in a 72 h endpoint. Following incubation, the fluorescent signal intensity of the 96-well plates were measured on a Mithras LB940 multimode plate reader at 530/600 nm (Berthold Technologies, Germanyl). The formation of Resorufin dye directly correlates with the number of metabolically active cells. For each triplicate treatment the mean and standard deviation were calculated and analyzed via curve fitting software to determine the respective compound concentration resulting in 50% growth inhibition (GI50) values. For each compound GI50 values were typically determined from at least 2 entirely independent experiments.
OCI-LY3 cells were acquired through a license agreement with University Health Network, Toronto, Canada. Cells are cultivated in RPM11640 media (Gibco, #61870-010, lot. 1894759), supplemented with 10% FCS (HyClone, GE #SH30066.03, lot AB217603), 2 mM L-Glutamine (BioConcept, #5-10K50-H, lot. LA03467P), 1 mM Sodium Pyruvate (BioConcept, #5-60F00-H, lot. LB10510P), 10 mM HEPES (Gibco, #15630-056, lot. 1854074), 1% Pen/Strep (BioConcept, #4-01F00-H, lot. LB04235P).

[2] = tested on: TMD8 cells; test: Resazurin cell viability (proliferation) assay in TMD8 DLBCL cells; settings: Homo sapiens, TMD8 cells (BTK dependent), 72 h, 50% growth inhibition vs vehicle, read-out: TMD8 Prol GI50
Protocol: as §1, §2, §3, §4, §5
TMD8 cells were acquired through a license agreement with Tokyo Medical and Dental University, Japan. Cells are cultivated in MEM Alpha (BioConcept, #1-23F01-1, lot. LB04262P) supplemented with 10% FCS (HyClone, GE #SH30066.03, lot AB3217603), 2 mM L-Glutamine (BioConcept, #5-10K50-H, lot. LA03467P), 1% Pen/Strep (BioConcept, #4-01F00-H, lot. LB04235P).

[3] = biological target: T1, BTK-GFP (Homo sapiens, UniProt Q06187+Q96SW2); test: BTK-GFP protein abundance flow cytometry assay in HEK293A cells; settings: HEK293A BTK-GFP-iresRFP cells, 24 h; for DC50: GFP signal by flow cytometry, concentration at which 50% maximal degradation was observed; for BTK deg Amax: % protein remaining at the concentration at which maximum degradation is seen
T1 construct: expressed in transfected cells; host or cells: HEK293A (Invitrogen R70507), lentiviral transduction with pLenti6-BTK-GFP-Ires-RFP, blasticidin selection
Protocol: as §1
BTK-GFP and IKZF3-GFP protein abundance flow cytometry assay in HEK293A cells:
Degradation of BTK or IKZF3 was measured in HEK293A cells (Invitrogen R70507) expressing either BTK-GFP and RFP or IKZF3-GFP and RFP from a stably integrated bicistronic BTK-GFP-iresRFP or IKZF3-GFP-iresRFP construct, respectively. Reduction of the GFP signal measured by flow cytometry served as readout for BTK or IKZF3 degradation after degrader treatment.
i) Cloning of the pLenti6-BTK-GFP-1Res-RFP and IKZF3-GFP-Ires-RFP Sensor Vectors
The bicistronic BTK-GFP-iresRFP construct is based on a pLenti6-DEST vector backbone where GFP was introduced into the unique Xho1 site downstream of the destination cassette (DEST) and RFP was cloned behind an internal ribosomal entry site (Ires).
In detail, the sensor construct was engineered by replacing NanoLuciferase (NLuc) by GFP and FireFly luciferase (FF) by RFP from pLenti6-DEST-NLuc-Ires-FF.
The pLenti6-DEST-NLuc-Ires-FF sensor construct was cloned by replacing eGFP from pLenti6-DEST-ires-eGFP with a synthesized stuffer element (encoding Ires-FF with FF flanked by two Nhe1 restriction sites) using blunt end cloning replacing Ires-eGFP between the two PmII. To enable C-terminal tagging with NanoLuciferase (NLuc), NLuc was amplified from pNL1.1 (Promega #N1001) using linker primers with Xho1 sites for ligating into linearized pLenti6-DEST-Ires-FF using Xho1 digest resulting in the construct pLenti6-DEST-NLuc-Ires-FF.
The pLenti6-DEST-NLuc-Ires-FF served as base vector for cloning pLenti6-DEST-GFP-Ires-RFP using Gibson assembly to replace FF with RFP and NLuc with GFP. In a first round FF was replaced by RFP by amplifying RFP from a template using the following Gibson assembly linker primers (Gibson-Nhe1 RFPfw, […]gctagc[…] (SEQ ID NO: 1); Gibson-Nhe1 RFP-Stoprev, […]ctagc[…] (SEQ ID NO: 2)) to clone into pLenti6-DEST-NLuc-Ires-FF digested with Nhe1 and gel-purified to remove the FF fragment. The resulting pLenti6-DEST-NLuc-Ires-RFP vector served as the template to replace NLuc with GFP by amplifying GFP from a template using following Gibson assembly linker primers (Gibson-Xho1 GFPfw, […]c[…] (SEQ ID NO: 3); Gibson-Xho1 GFP-Stoprev, […] (SEQ ID NO: 4)) to clone into pLenti6-DEST-NLuc-Ires-RFP digested with Xho1 and gel-purified to remove the NLuc fragment. All Gibson assembly reactions were performed with Gibson assembly Master Mix (New England Biolabs NEB E261 IL) according to manufacturer's manual, resulting in the destination vector pLenti6-DEST-GFP-Ires-RFP to allow Gateway cloning. To enable gateway cloning and C-terminal GFP tagging of BTK, the BTK open reading frame (ORF) was first shuttled from a pcDNA-DEST40-BTK vector (Invitrogen library ID INV_20090504v1) into pDONR221 (Invitrogen 12536-017) vector using a gateway BP reaction according to the manufacturer's manual (Invitrogen 11789-013) resulting in the novel construct pENTR221-BTK. For C-terminal tagging the STOP codon was mutated to a leucine performing a mutagenesis reaction with the following primers (pENTR221-BTK Quikchange STOP-Leu fw, gtcatggatgaagaatccTTGaacccagctttcttgtac; pENTR221-BTK Quikchange STOP-Leu REVC, gtacaagaaagctgggttCAAggattcttcatccatgac) using the QuikChange Lightning mutagenesis kit (Agilent Technologies #210518) according to the manufacturer's manual, resulting in pENTR221-BTK (STOP-Leu). […]

T1 sequence (Q06187 whole entry): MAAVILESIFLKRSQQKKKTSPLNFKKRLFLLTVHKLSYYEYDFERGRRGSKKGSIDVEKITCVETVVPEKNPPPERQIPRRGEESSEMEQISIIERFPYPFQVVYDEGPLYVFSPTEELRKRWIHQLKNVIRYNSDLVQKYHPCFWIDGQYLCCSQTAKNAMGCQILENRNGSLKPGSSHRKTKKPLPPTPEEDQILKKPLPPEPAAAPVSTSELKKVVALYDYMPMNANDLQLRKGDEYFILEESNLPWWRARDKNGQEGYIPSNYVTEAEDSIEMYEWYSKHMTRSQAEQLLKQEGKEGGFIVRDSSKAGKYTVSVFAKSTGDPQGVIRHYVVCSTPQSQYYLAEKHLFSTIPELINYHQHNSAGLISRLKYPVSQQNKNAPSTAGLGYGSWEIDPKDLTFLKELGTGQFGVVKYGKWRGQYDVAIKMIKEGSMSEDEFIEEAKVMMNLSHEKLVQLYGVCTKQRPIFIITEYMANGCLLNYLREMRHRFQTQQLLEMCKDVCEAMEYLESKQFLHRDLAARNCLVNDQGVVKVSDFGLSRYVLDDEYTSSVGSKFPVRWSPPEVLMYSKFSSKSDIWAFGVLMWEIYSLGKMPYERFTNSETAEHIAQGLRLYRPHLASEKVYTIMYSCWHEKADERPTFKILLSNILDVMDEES
T1 sequence (Q96SW2 whole entry): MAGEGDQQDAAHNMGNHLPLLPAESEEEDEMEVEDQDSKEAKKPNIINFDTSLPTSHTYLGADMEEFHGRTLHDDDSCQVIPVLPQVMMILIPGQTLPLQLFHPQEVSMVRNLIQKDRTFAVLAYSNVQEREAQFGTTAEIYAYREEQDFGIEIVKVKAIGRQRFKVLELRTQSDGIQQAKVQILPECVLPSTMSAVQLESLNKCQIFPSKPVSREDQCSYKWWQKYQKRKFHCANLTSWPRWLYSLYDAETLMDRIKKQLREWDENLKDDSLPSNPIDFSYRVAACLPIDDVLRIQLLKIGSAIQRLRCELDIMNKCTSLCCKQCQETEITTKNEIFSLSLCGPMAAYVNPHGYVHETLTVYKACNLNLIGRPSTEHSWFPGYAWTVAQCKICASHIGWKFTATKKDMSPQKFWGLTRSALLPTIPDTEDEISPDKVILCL
T1 sequence (Q16531 whole entry partner): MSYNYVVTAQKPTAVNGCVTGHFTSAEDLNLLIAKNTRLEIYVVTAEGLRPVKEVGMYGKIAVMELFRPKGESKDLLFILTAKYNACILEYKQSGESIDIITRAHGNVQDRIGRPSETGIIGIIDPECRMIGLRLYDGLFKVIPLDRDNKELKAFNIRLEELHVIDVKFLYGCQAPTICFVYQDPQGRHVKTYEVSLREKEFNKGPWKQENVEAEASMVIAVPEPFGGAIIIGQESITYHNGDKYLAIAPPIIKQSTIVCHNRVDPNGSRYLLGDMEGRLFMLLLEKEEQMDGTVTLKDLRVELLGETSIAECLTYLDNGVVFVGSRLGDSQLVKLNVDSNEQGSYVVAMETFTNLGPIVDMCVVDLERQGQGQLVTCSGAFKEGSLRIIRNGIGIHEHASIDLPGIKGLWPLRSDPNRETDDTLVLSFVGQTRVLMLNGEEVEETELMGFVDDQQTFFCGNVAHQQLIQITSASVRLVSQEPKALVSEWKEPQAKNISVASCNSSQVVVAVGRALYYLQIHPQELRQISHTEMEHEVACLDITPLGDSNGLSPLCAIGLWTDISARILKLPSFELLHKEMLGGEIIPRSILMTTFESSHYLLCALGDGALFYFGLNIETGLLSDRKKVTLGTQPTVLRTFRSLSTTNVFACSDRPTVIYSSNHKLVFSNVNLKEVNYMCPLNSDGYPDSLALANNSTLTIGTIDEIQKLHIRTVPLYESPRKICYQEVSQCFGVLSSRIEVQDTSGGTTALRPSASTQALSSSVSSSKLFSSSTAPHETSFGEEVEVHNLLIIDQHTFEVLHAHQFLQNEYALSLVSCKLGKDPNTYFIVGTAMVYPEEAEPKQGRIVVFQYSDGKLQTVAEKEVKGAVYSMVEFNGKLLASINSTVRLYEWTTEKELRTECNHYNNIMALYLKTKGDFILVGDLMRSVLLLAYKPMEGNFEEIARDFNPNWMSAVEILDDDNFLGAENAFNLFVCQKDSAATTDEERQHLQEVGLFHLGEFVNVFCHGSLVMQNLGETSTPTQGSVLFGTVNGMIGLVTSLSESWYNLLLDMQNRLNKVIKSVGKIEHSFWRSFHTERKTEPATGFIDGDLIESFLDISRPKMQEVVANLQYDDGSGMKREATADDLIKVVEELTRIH

| Structure (SMILES) | GI50 [1] [nM] | GI50 [2] [nM] | DC50 [3] [nM] | BTK deg Amax [3] [%] |
| --- | --- | --- | --- | --- |
| COc1ccc(C(=O)N2CCC3(CCN(Cc4ccc(-c5cc6c(-c7cc(F)cc(NC(=O)c8ccc(C(C)(C)O)cc8F)c7C)ncnc6[nH]5)cc4)CC3)C(CO)C2)cc1N1CCC(=O)NC1=O (racemic) [Compound 1, rac-N-(3-(6-(4-((9-(3-(2,4-Dioxotetrahydropyrimidin-1(2H)-yl)-4-methoxybenzoyl)-7-(hydroxymethyl)-3,9-diazaspiro[5.5]undecan-3-yl)methyl)phenyl)-7H-pyrrolo[2,3-d]pyrimidin-4-yl)-5-fluoro-2-methylphenyl)-2-fluoro-4-(2-hydroxypropan-2-yl)benzamide] | > 10000 | 3.89 | 26.2 | 4.2 |
| COc1ccc(C(=O)N2CCC(OC(CO)CN3CCC(Oc4ccc(-c5cc6c(-c7cc(F)cc(NC(=O)c8ccc(C(C)(C)O)cc8F)c7C)ncnc6[nH]5)cc4)CC3)CC2)cc1N1CCC(=O)NC1=O (racemic) [Compound 18, rac-N-(3-(6-(4-((1-(2-((1-(3-(2,4-Dioxotetrahydropyrimidin-1(2H)-yl)-4-methoxybenzoyl)piperidin-4-yl)oxyl)-3-hydroxypropyl)piperidin-4-yl)oxyl)phenyl)-7H-pyrrolo[2,3-d]pyrimidin-4-yl)-5-fluoro-2-methylphenyl)-2-fluoro-4-(2-hydroxypropan-2-yl)benzamide] | 4320 | 1.58 | 10.8 | 3.4 |
| COc1ccc(C(=O)N2CCC3(CCN(Cc4ccc(-c5cc6c(-c7cc(F)cc(NC(=O)c8ccc(C(C)(C)O)cc8F)c7C)ncnc6[nH]5)cc4)CC3CO)CC2)cc1N1CCC(=O)NC1=O (racemic) [Compound 23, rac-N-(3-(6-(4-((9-(3-(2,4-Dioxotetrahydropyrimidin-1(2H)-yl)-4-methoxybenzoyl)-1 (hydroxymethyl)-3,9-diazaspiro[5.5]undecan-3-yl)methyl)phenyl)-7H-pyrrolo[2,3-d]pyrimidin-4-yl)-5-fluoro-2-methylphenyl)-2-fluoro-4-(2-hydroxypropan-2-yl)benzamide] | > 10000 | 5.35 | 46.8 | 10.4 |
| COc1ccc(C(=O)N2CCC3(CCN(Cc4ccc(-c5cc6c(-c7cc(F)cc(NC(=O)c8ccc(C(C)(C)O)cc8F)c7C)ncnc6[nH]5)cc4)CC3)[C@@H](CO)C2)cc1N1CCC(=O)NC1=O (single isomer, unassigned) [Compound 2] | > 10000 | 3.57 | 38.5 | 4.6 |
| COc1ccc(C(=O)N2CCC3(CCN(Cc4ccc(-c5cc6c(-c7cc(F)cc(NC(=O)c8ccc(C(C)(C)O)cc8F)c7C)ncnc6[nH]5)cc4)CC3)[C@H](CO)C2)cc1N1CCC(=O)NC1=O (single isomer, unassigned) [Compound 3] | > 10000 | 2.24 | 19.1 | 3.6 |
| COc1ccc(C(=O)N2CCC3(CCN(Cc4ccc(-c5cc6c(-c7cc(F)cc(NC(=O)c8ccc(C(C)(C)O)cc8F)c7C)ncnc6[nH]5)cc4)C[C@@H]3CO)CC2)cc1N1CCC(=O)NC1=O (single isomer, unassigned) [Compound 24] | > 10000 | 5.98 | 77.1 | 10.8 |
| COc1ccc(C(=O)N2CCC3(CCN(Cc4ccc(-c5cc6c(-c7cc(F)cc(NC(=O)c8ccc(C(C)(C)O)cc8F)c7C)ncnc6[nH]5)cc4)C[C@H]3CO)CC2)cc1N1CCC(=O)NC1=O (single isomer, unassigned) [Compound 25] | > 10000 | 11.4 | 78.4 | 7.2 |
| COc1ccc(C(=O)N2CCC(CN3CCN(Cc4ccc(-c5cc6c(-c7cc(F)cc(NC(=O)c8ccc(C(C)(C)O)cc8F)c7C)ncnc6[nH]5)cc4)CC3)CC2)cc1N1CCC(=O)NC1=O [Compound 7, N-(3-(6-(4-((4-((1-(3-(2,4-Dioxotetrahydropyrimidin-1(2H)-yl)-4-methoxybenzoyl)piperidin-4-yl)methyl)piperazin-1-yl)methyl)phenyl)-7H-pyrrolo[2,3-d]pyrimidin-4-yl)-5-fluoro-2-methylphenyl)-2-fluoro-4-(2-hydroxypropan-2-yl)benzamide] | 6120 | 0.39 | 0.7 | 3.3 |
